MIC data for six compounds are collected here from patent US4292309A, “Antibiotics C-14482 B1, B2 and B3” (Takeda Chemical Industries, Ltd., priority 1979, dated 1981).

In brackets after ≈: the same amount, converted by molar mass. Where two headings read alike, the source gives them in different places. Bounds are passed on as bounds.

In one assay the test system is Strain IFO 13725. As to the kind of experiment: Susceptibility toward antibiotic (minimum inhibition concentration). It counts as cell-based, Nocardia sp. No. C-14482. The following applies: Nocardia. From the text: (§1) For example, a conventional mutagenesis effected with the strain IFO 13725 as the parent strain yields the strain IFO 13887, a variant capable of producing advantageously Antibiotic C-14482 B. This strain has the capability to produce C-14482 B in increased quantities as compared with the parent strain thereof, and is similar in taxonomical characteristics to the parent strain, except the physiological properties shown in Table 4.

A further assay concerns Strain IFO 13887. The description is as above. The assay is classed as cell-based, Nocardia sp. No. C-14482. The following applies: Nocardia.
Source text: as §1

The mark [1] stands for this setting: IFO13725, Strain IFO 13725, read-out: minimum inhibition concentration.
Where [2] appears, read: IFO13887, Strain IFO 13887, read-out: minimum inhibition concentration.

For `CO[C@H]1/C=C/O[C@@]2(C)Oc3c(C)c(O)c4c(O)c(c(/C=N/N5CCN(C)CC5)c(O)c4c3C2=O)NC(=O)/C(C)=C\C=C\[C@H](C)[C@H](O)[C@@H](C)[C@@H](O)[C@@H](C)[C@H](OC(C)=O)[C@@H]1C` [Rifampicin], the MIC in the assay on Strain IFO 13725 (setting [1]) and with Strain IFO 13887 (setting [2]) was less than 0.1 µg/mL throughout.
In the case of `[H]/N=C(/N)N[C@H]1[C@H](O)[C@@H](O)[C@H](O[C@@H]2O[C@@H](C)[C@](O)(C=O)[C@H]2O[C@@H]2O[C@@H](CO)[C@H](O)[C@@H](O)[C@@H]2NC)[C@@H](N/C(N)=N\[H])[C@@H]1O` [Streptomycin], the MIC was found to be 1 µg/mL (≈ 1.72 µM) in the assay on Strain IFO 13725 (setting [1]) and 5 µg/mL (≈ 8.6 µM) with Strain IFO 13887 (setting [2]).
The corresponding values for `O=C(N[C@H](CO)[C@H](O)c1ccc([N+](=O)[O-])cc1)C(Cl)Cl` [Chloramphenicol] are 10 µg/mL (≈ 30.9 µM) and 5 µg/mL (≈ 15.5 µM).
The corresponding values for `CC1(C)S[C@@H]2[C@H](NC(=O)Cc3ccccc3)C(=O)N2[C@H]1C(=O)O` [Penicillin G] are 10 µg/mL (≈ 29.9 µM) and 50 µg/mL (≈ 150 µM).
The corresponding values for `CCC[C@@H]1C[C@@H](C(=O)N[C@@H]([C@H]2O[C@H](SC)[C@H](O)[C@@H](O)[C@H]2O)[C@@H](C)O)N(C)C1` [Lincomycin] are 5 µg/mL (≈ 12.3 µM) and 20 µg/mL (≈ 49.2 µM).
As to `CN(C)C1C(=O)C(C(N)=O)=C(O)C2(O)C(=O)C3=C(O)c4c(O)cccc4C(C)(O)C3CC12` (stereo not drawn) [Tetracycline], the MIC is 0.5 µg/mL (≈ 1.13 µM) with Strain IFO 13725 (IFO13725, read-out: minimum inhibition concentration) and 1 µg/mL (≈ 2.25 µM) with Strain IFO 13887 (IFO13887, read-out: minimum inhibition concentration).
